Test results taken from PubChem BioAssay AID1963873 (Molecular Pharmacology Branch, DTP, NCI, 2024).

Tested on: 276233-004-R-J1-PDC KRAS spheroids with HUVEC/MSC, viability
Experiment: Anticancer human tumor 276233-004-R-J1-PDC patient-derived colon adenocarcinoma cell line growth inhibition [KRAS2]
Settings: for viability, T/C: stronger effect = lower value
Method in brief: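 Combination screen of spheroid viability in tumor-cell co-cultures with endothelial (HUVEC) and mesenchymal stem cell stroma. Each agent was tested in half-log dilutions, topping at clinical Cmax or at 10 microM without a known Cmax.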

[1] = curve of first compound, second compound 0.1 µM
[2] = curve of first compound, second compound 0.316 µM
[3] = curve of first compound, second compound 1 µM
[4] = curve of first compound, second compound 3.16 µM
[5] = curve of first compound, second compound 10 µM
[6] = second compound 0.1 µM, first compound 0.01 µM
[7] = second compound 0.1 µM, first compound 0.0316 µM
[8] = second compound 0.1 µM, first compound 0.1 µM
[9] = second compound 0.1 µM, first compound 0.316 µM
[10] = second compound 0.1 µM, first compound 1 µM
[11] = second compound 0.1 µM, first compound 3.16 µM
[12] = second compound 0.316 µM, first compound 0.01 µM
[13] = second compound 0.316 µM, first compound 0.0316 µM
[14] = second compound 0.316 µM, first compound 0.1 µM
[15] = second compound 0.316 µM, first compound 0.316 µM
[16] = second compound 0.316 µM, first compound 1 µM
[17] = second compound 0.316 µM, first compound 3.16 µM
[18] = second compound 1 µM, first compound 0.01 µM
[19] = second compound 1 µM, first compound 0.0316 µM
[20] = second compound 1 µM, first compound 0.1 µM
[21] = second compound 1 µM, first compound 0.316 µM
[22] = second compound 1 µM, first compound 1 µM
[23] = second compound 1 µM, first compound 3.16 µM
[24] = second compound 3.16 µM, first compound 0.01 µM
[25] = second compound 3.16 µM, first compound 0.0316 µM
[26] = second compound 3.16 µM, first compound 0.1 µM
[27] = second compound 3.16 µM, first compound 0.316 µM
[28] = second compound 3.16 µM, first compound 1 µM
[29] = second compound 3.16 µM, first compound 3.16 µM
[30] = second compound 10 µM, first compound 0.01 µM
[31] = second compound 10 µM, first compound 0.0316 µM
[32] = second compound 10 µM, first compound 0.1 µM
[33] = second compound 10 µM, first compound 0.316 µM
[34] = second compound 10 µM, first compound 1 µM
[35] = second compound 10 µM, first compound 3.16 µM
[36] = second compound 0.1 µM, first compound 10 µM
[37] = second compound 0.316 µM, first compound 10 µM
[38] = second compound 1 µM, first compound 10 µM
[39] = second compound 3.16 µM, first compound 10 µM
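Further: cells exposed to agents for seven days before viability read.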
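Wherever viability, T/C is given: 100% = DMSO vehicle control wells and lower values mean fewer viable cells.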

CC1COCCN1c1cc(-c2ccnn2C)c2ccnc(-c3ccn[nH]3)c2n1 (stereo not given) + COc1cc2nc(C)nc(NC(C)c3cc(N)cc(C(F)(F)F)c3)c2cc1OC1CCOC1
IC50 [1]: 1470 nM
IC50 [2]: 706 nM
IC50 [3]: 1860 nM
IC50 [4]: 474 nM
IC50 [5]: < 10 nM
viability, T/C [6]: 81.3%
viability, T/C [7]: 90.3%
viability, T/C [8]: 75.8%
viability, T/C [9]: 71.4%
viability, T/C [10]: 54.5%
viability, T/C [11]: 40.6%
viability, T/C [12]: 80%
viability, T/C [13]: 86.1%
viability, T/C [14]: 74.2%
viability, T/C [15]: 58.9%
viability, T/C [16]: 42.6%
viability, T/C [17]: 48.6%
viability, T/C [18]: 94.5%
viability, T/C [19]: 82%
viability, T/C [20]: 76.9%
viability, T/C [21]: 64.8%
viability, T/C [22]: 53.6%
viability, T/C [23]: 46.3%
viability, T/C [24]: 80.6%
viability, T/C [25]: 82.6%
viability, T/C [26]: 70%
viability, T/C [27]: 55.8%
viability, T/C [28]: 37.5%
viability, T/C [29]: 48.4%
viability, T/C [30]: 37.4%
viability, T/C [31]: 46.5%
viability, T/C [32]: 45.8%
viability, T/C [33]: 34.1%
viability, T/C [34]: 36.9%
viability, T/C [35]: 24.8%

CC1(C)CCC(CN2CCN(c3ccc(C(=O)NS(=O)(=O)c4ccc(NCC5CCOCC5)c([N+](=O)[O-])c4)c(Oc4cnc5[nH]ccc5c4)c3)CC2)=C(c2ccc(Cl)cc2)C1 + C=CC(=O)N1CCN(c2nc(OCC3CCCN3C)nc3c2CCN(c2cccc4cccc(C)c24)C3)CC1CC#N
IC50 (curve of first compound, second compound 0.0316 µM): > 10000 nM
IC50 [1]: > 10000 nM
IC50 [2]: 8090 nM
IC50 [3]: 3050 nM
IC50 [4]: < 31.6 nM
viability, T/C (second compound 0.0316 µM, first compound 0.0316 µM): 90.7%
viability, T/C (second compound 0.0316 µM, first compound 0.1 µM): 102%
viability, T/C (second compound 0.0316 µM, first compound 0.316 µM): 113%
viability, T/C (second compound 0.0316 µM, first compound 1 µM): 94.4%
viability, T/C (second compound 0.0316 µM, first compound 3.16 µM): 88%
viability, T/C (second compound 0.0316 µM, first compound 10 µM): 56%
viability, T/C [7]: 80.3%
viability, T/C [8]: 113%
viability, T/C [9]: 85.5%
viability, T/C [10]: 86.2%
viability, T/C [11]: 96.6%
viability, T/C [36]: 61.4%
viability, T/C [13]: 102%
viability, T/C [14]: 89%
viability, T/C [15]: 87.1%
viability, T/C [16]: 126%
viability, T/C [17]: 82.1%
viability, T/C [37]: 42.7%
viability, T/C [19]: 83.7%
viability, T/C [20]: 111%
viability, T/C [21]: 90.5%
viability, T/C [22]: 100%
viability, T/C [23]: 48.4%
viability, T/C [38]: 22.1%
viability, T/C [25]: 47.6%
viability, T/C [26]: 42.6%
viability, T/C [27]: 41.9%
viability, T/C [28]: 23.2%
viability, T/C [29]: 0.96%
viability, T/C [39]: 0.77%

CC(=O)OC12COC1CC(O)C1(C)C(=O)C(O)C3=C(C)C(OC(=O)C(O)C(NC(=O)OC(C)(C)C)c4ccccc4)CC(O)(C(OC(=O)c4ccccc4)C21)C3(C)C (stereo not given)
viability, T/C (compound 0.01 µM): 90.3% [middle of 5 runs]
viability, T/C (compound 0.316 µM): 88.6% [middle of 5 runs]
viability, T/C (compound 1 µM): 94.5% [middle of 5 runs]
viability, T/C (compound 3.16 µM): 92.1% [middle of 5 runs]
IC50 (curve of compound): > 3160 nM

Cn1ncnc1[C@H]1c2n[nH]c(=O)c3cc(F)cc(c23)N[C@@H]1c1ccc(F)cc1 + CNCc1ccccc1-c1csc(C(C)Nc2nc(C)nc3cc(OC)c(OC)cc23)c1
IC50 [1]: > 100 nM
IC50 [2]: > 100 nM
IC50 [3]: > 100 nM
IC50 [4]: < 0.316 nM
IC50 [5]: < 0.316 nM
viability, T/C (second compound 0.1 µM, first compound 0.000316 µM): 113%
viability, T/C (second compound 0.1 µM, first compound 0.001 µM): 115%
viability, T/C (second compound 0.1 µM, first compound 0.00316 µM): 98.2%
viability, T/C [6]: 107%
viability, T/C [7]: 87.6%
viability, T/C [8]: 120%
viability, T/C (second compound 0.316 µM, first compound 0.000316 µM): 96.1%
viability, T/C (second compound 0.316 µM, first compound 0.001 µM): 119%
viability, T/C (second compound 0.316 µM, first compound 0.00316 µM): 116%
viability, T/C [12]: 124%
viability, T/C [13]: 83.2%
viability, T/C [14]: 98.5%
viability, T/C (second compound 1 µM, first compound 0.000316 µM): 56.7%
viability, T/C (second compound 1 µM, first compound 0.001 µM): 69.5%
viability, T/C (second compound 1 µM, first compound 0.00316 µM): 75.1%
viability, T/C [18]: 68.2%
viability, T/C [19]: 50.2%
viability, T/C [20]: 78%
viability, T/C (second compound 3.16 µM, first compound 0.000316 µM): 9.27%
viability, T/C (second compound 3.16 µM, first compound 0.001 µM): 0.64%
viability, T/C (second compound 3.16 µM, first compound 0.00316 µM): 0.7%
viability, T/C [24]: 0.62%
viability, T/C [25]: 0.53%
viability, T/C [26]: 0.74%
viability, T/C (second compound 10 µM, first compound 0.000316 µM): 0.22%
viability, T/C (second compound 10 µM, first compound 0.001 µM): 0.22%
viability, T/C (second compound 10 µM, first compound 0.00316 µM): 0.22%
viability, T/C [30]: 0.2%
viability, T/C [31]: 0.18%
viability, T/C [32]: 2.9%

CC(C)NCC(C(=O)N1CCN(c2ncnc3c2C(C)CC3O)CC1)c1ccc(Cl)cc1 (stereo not given) + CC1OCC2(CCN(c3cnc(Sc4ccnc(N)c4Cl)c(N)n3)CC2)C1N
IC50 [1]: > 10000 nM
IC50 [2]: 2080 nM
IC50 [3]: 697 nM
IC50 [4]: 343 nM
IC50 [5]: 183 nM
viability, T/C [7]: 77.2%
viability, T/C [8]: 75.2%
viability, T/C [9]: 56.3%
viability, T/C [10]: 65.9%
viability, T/C [11]: 56.1%
viability, T/C [36]: 51.5%
viability, T/C [13]: 90.4%
viability, T/C [14]: 69%
viability, T/C [15]: 55.8%
viability, T/C [16]: 52.8%
viability, T/C [17]: 49.5%
viability, T/C [37]: 47.5%
viability, T/C [19]: 68%
viability, T/C [20]: 59.5%
viability, T/C [21]: 48.4%
viability, T/C [22]: 52.8%
viability, T/C [23]: 48.1%
viability, T/C [38]: 40.2%
viability, T/C [25]: 63.3%
viability, T/C [26]: 58.4%
viability, T/C [27]: 52.1%
viability, T/C [28]: 41.4%
viability, T/C [29]: 37.1%
viability, T/C [39]: 31.5%
viability, T/C [31]: 59.1%
viability, T/C [32]: 57%
viability, T/C [33]: 38.1%
viability, T/C [34]: 41.7%
viability, T/C [35]: 36.1%
viability, T/C (second compound 10 µM, first compound 10 µM): 19.1%

CC1COCCN1c1cc(-c2ccnn2C)c2ccnc(-c3ccn[nH]3)c2n1 (stereo not given) + CNCc1ccccc1-c1csc(C(C)Nc2nc(C)nc3cc(OC)c(OC)cc23)c1
IC50 [1]: > 3160 nM
IC50 [2]: > 3160 nM
IC50 [3]: > 3160 nM
IC50 [4]: < 10 nM
IC50 [5]: < 10 nM
viability, T/C [6]: 93.1%
viability, T/C [7]: 95.5%
viability, T/C [8]: 90.2%
viability, T/C [9]: 82.8%
viability, T/C [10]: 70%
viability, T/C [11]: 57%
viability, T/C [12]: 93.2%
viability, T/C [13]: 94.1%
viability, T/C [14]: 87.7%
viability, T/C [15]: 85.3%
viability, T/C [16]: 77.9%
viability, T/C [17]: 59.1%
viability, T/C [18]: 82%
viability, T/C [19]: 86.7%
viability, T/C [20]: 69.9%
viability, T/C [21]: 63.1%
viability, T/C [22]: 57.7%
viability, T/C [23]: 50.9%
viability, T/C [24]: 0.49%
viability, T/C [25]: 1.11%
viability, T/C [26]: 1.38%
viability, T/C [27]: 1.8%
viability, T/C [28]: 2.11%
viability, T/C [29]: 1.03%
viability, T/C [30]: 0.67%
viability, T/C [31]: 3.53%
viability, T/C [32]: 0.82%
viability, T/C [33]: 0.17%
viability, T/C [34]: 0.15%
viability, T/C [35]: 2.79%
